{"source": "patent US10766865B2", "about": "“PKM2 modulators and methods for their use” (TOLERO PHARMACEUTICALS, INC., priority 2012, dated 2020)", "assay_type_in_all_cases": "cell-based", "key": {"[1]": {"test_system": "lung carcinoma cell lines", "experiment": "Viability against a subset of lung carcinoma cell lines", "details": "certain of 6 cell lines, media lacking serine, FIG. 4C; read-out: IC50, inhibition of cell proliferation", "experimental": "(§1) Viability effect of Example 1 against a subset of lung carcinoma cell lines was determined as follows. Cells were seeded at 1500 cells per well in 384-well plates in BME media, and compound was added in 0.1% DMSO 18 hours later. Viability was determined by ATPlite assay after 72 hours. (See FIG. 4C)."}, "FaDu": {"test_system": "FaDu", "experiment": "Cell line sensitivity (viability, ATPlite)", "details": "Homo sapiens, Head/Neck, BME media, 72 hours, read-out: Sensitivity to Example 1 (IC50)", "experimental": "as §1\n(§2) Example 1 was tested against an expanded panel of cell lines according to the above procedure."}, "Detroit562": {"test_system": "Detroit562", "experiment": "Cell line sensitivity (viability, ATPlite)", "details": "Homo sapiens, Detroit 562; Detroit562, Head/Neck; BME media, 72 hours; read-out: Sensitivity to Example 1 (IC50)", "experimental": "as §1, §2"}, "Malme3M": {"test_system": "Malme3M", "experiment": "Cell line sensitivity (viability, ATPlite)", "details": "Homo sapiens, Malme-3M, Melanoma, BME media, 72 hours, read-out: Sensitivity to Example 1 (IC50)", "experimental": "as §1, §2"}, "PL45": {"test_system": "PL45", "experiment": "Cell line sensitivity (viability, ATPlite)", "details": "PL45, Pancreatic; BME media, 72 hours; read-out: Sensitivity to Example 1 (IC50)", "experimental": "as §1, §2"}, "Panc-1": {"test_system": "Panc-1", "experiment": "Cell line sensitivity (viability, ATPlite)", "details": "Homo sapiens; Panc-1, Pancreatic; BME media, 72 hours; read-out: Sensitivity to Example 1 (IC50)", "experimental": "as §1, §2"}, "MiaPaCa2": {"test_system": "MiaPaCa2", "experiment": "Cell line sensitivity (viability, ATPlite)", "details": "Homo sapiens, MIA PaCa-2; MiaPaCa2, Pancreatic; BME media, 72 hours; read-out: Sensitivity to Example 1 (IC50)", "experimental": "as §1, §2"}, "MDA-MB468": {"test_system": "MDA-MB468", "experiment": "Cell line sensitivity (viability, ATPlite)", "details": "Homo sapiens, MDA-MB-468; MDA-MB468, Breast; BME media, 72 hours; read-out: Sensitivity to Example 1 (IC50)", "experimental": "as §1, §2"}, "Ls174T": {"test_system": "Ls174T", "experiment": "Cell line sensitivity (viability, ATPlite)", "details": "Homo sapiens, Colon, BME media, 72 hours, read-out: Sensitivity to Example 1 (IC50)", "experimental": "as §1, §2"}, "HT1080": {"test_system": "HT1080", "experiment": "Cell line sensitivity (viability, ATPlite)", "details": "Homo sapiens, HT-1080; HT1080, Sarcoma; BME media, 72 hours; read-out: Sensitivity to Example 1 (IC50)", "experimental": "as §1, §2"}, "PSN-1": {"test_system": "PSN-1", "experiment": "Cell line sensitivity (viability, ATPlite)", "details": "Homo sapiens, PSN1; PSN-1, Pancreatic; BME media, 72 hours; read-out: Sensitivity to Example 1 (IC50)", "experimental": "as §1, §2"}, "SW480": {"test_system": "SW480", "experiment": "Cell line sensitivity (viability, ATPlite)", "details": "Homo sapiens; SW480, Colon; BME media, 72 hours; read-out: Sensitivity to Example 1 (IC50)", "experimental": "as §1, §2"}, "Skov3": {"test_system": "Skov3", "experiment": "Cell line sensitivity (viability, ATPlite)", "details": "Homo sapiens, SK-OV-3; Skov3, Ovarian; BME media, 72 hours; read-out: Sensitivity to Example 1 (IC50)", "experimental": "as §1, §2"}, "HCT15": {"test_system": "HCT15", "experiment": "Cell line sensitivity (viability, ATPlite)", "details": "Homo sapiens, HCT-15; HCT15, Colon; BME media, 72 hours; read-out: Sensitivity to Example 1 (IC50)", "experimental": "as §1, §2"}, "NCI-H647": {"test_system": "NCI-H647", "experiment": "Cell line sensitivity (viability, ATPlite)", "details": "Homo sapiens; NCI-H647, Lung; BME media, 72 hours; read-out: Sensitivity to Example 1 (IC50)", "experimental": "as §1, §2"}, "A498": {"test_system": "A498", "experiment": "Cell line sensitivity (viability, ATPlite)", "details": "Homo sapiens; A498, Kidney; BME media, 72 hours; read-out: Sensitivity to Example 1 (IC50)", "experimental": "as §1, §2"}, "LNCaP": {"test_system": "LNCaP", "experiment": "Cell line sensitivity (viability, ATPlite)", "details": "Homo sapiens, Prostate, BME media, 72 hours, read-out: Sensitivity to Example 1 (IC50)", "experimental": "as §1, §2"}, "MDA-MB453": {"test_system": "MDA-MB453", "experiment": "Cell line sensitivity (viability, ATPlite)", "details": "Homo sapiens, MDA-MB-453; MDA-MB453, Breast; BME media, 72 hours; read-out: Sensitivity to Example 1 (IC50)", "experimental": "as §1, §2"}, "SW948": {"test_system": "SW948", "experiment": "Cell line sensitivity (viability, ATPlite)", "details": "Homo sapiens; SW948, Colon; BME media, 72 hours; read-out: Sensitivity to Example 1 (IC50)", "experimental": "as §1, §2"}, "NCI-H522": {"test_system": "NCI-H522", "experiment": "Cell line sensitivity (viability, ATPlite)", "details": "Homo sapiens; NCI-H522, Lung; BME media, 72 hours; read-out: Sensitivity to Example 1 (IC50)", "experimental": "as §1, §2"}, "A549": {"test_system": "A549", "experiment": "Cell line sensitivity (viability, ATPlite)", "details": "Homo sapiens; A549, Lung; BME media, 72 hours; read-out: Sensitivity to Example 1 (IC50)", "experimental": "as §1, §2"}, "HT29": {"test_system": "HT29", "experiment": "Cell line sensitivity (viability, ATPlite)", "details": "Homo sapiens, HT-29; HT29, Colon; BME media, 72 hours; read-out: Sensitivity to Example 1 (IC50)", "experimental": "as §1, §2"}, "22RV1": {"test_system": "22RV1", "experiment": "Cell line sensitivity (viability, ATPlite)", "details": "Homo sapiens; 22RV1, Prostate; BME media, 72 hours; read-out: Sensitivity to Example 1 (IC50)", "experimental": "as §1, §2"}, "Capan1": {"test_system": "Capan1", "experiment": "Cell line sensitivity (viability, ATPlite)", "details": "Homo sapiens, CAPAN-1; Capan1, Pancreatic; BME media, 72 hours; read-out: Sensitivity to Example 1 (IC50)", "experimental": "as §1, §2"}, "A549 cells": {"test_system": "A549 cells", "experiment": "Cell Proliferation Assay, A549", "details": "Homo sapiens; A549, BME media lacking nonessential amino acids, 72 hours, ATPlite; read-out: Percent viability (EC50), Average", "experimental": "Cells were seeded at 5000 cells per well (in 96-well plate) in BME media lacking nonessential amino acids+5% dialyzed serum. After 18 hours, DMSO or compound in 0.1% final concentration DMSO was added.\nPercent viability (EC50) of A549 and PC3 cells was tested against certain exemplary compounds according to the above general procedures."}}, "data": [{"smiles": "O=C(c1cc(C(F)(F)F)n[nH]1)N(Cc1ccc(O)cc1F)CC1CCC1", "note": "[Example 1, N-(cyclobutylmethyl)-N-(2-fluoro-4-hydroxybenzyl)-3-(trifluoromethyl)-1H-pyrazole-5-carboxamide]", "values": [{"measurement": "IC50", "setting": "[1]", "value": "≥ 0.1", "unit": "µM"}, {"measurement": "IC50", "setting": "FaDu", "value": "> 30", "unit": "µM"}, {"measurement": "IC50", "setting": "Detroit562", "value": 3, "unit": "µM"}, {"measurement": "IC50", "setting": "Malme3M", "value": "> 30", "unit": "µM"}, {"measurement": "IC50", "setting": "PL45", "value": "> 30", "unit": "µM"}, {"measurement": "IC50", "setting": "Panc-1", "value": 0.014, "unit": "µM"}, {"measurement": "IC50", "setting": "MiaPaCa2", "value": 0.2, "unit": "µM"}, {"measurement": "IC50", "setting": "MDA-MB468", "value": "> 30", "unit": "µM"}, {"measurement": "IC50", "setting": "Ls174T", "value": "> 30", "unit": "µM"}, {"measurement": "IC50", "setting": "HT1080", "value": 0.05, "unit": "µM"}, {"measurement": "IC50", "setting": "PSN-1", "value": "> 30", "unit": "µM"}, {"measurement": "IC50", "setting": "SW480", "value": 0.1, "unit": "µM"}, {"measurement": "IC50", "setting": "Skov3", "value": 8, "unit": "µM"}, {"measurement": "IC50", "setting": "HCT15", "value": "> 30", "unit": "µM"}, {"measurement": "IC50", "setting": "NCI-H647", "value": "> 30", "unit": "µM"}, {"measurement": "IC50", "setting": "A498", "value": "> 30", "unit": "µM"}, {"measurement": "IC50", "setting": "LNCaP", "value": "> 30", "unit": "µM"}, {"measurement": "IC50", "setting": "MDA-MB453", "value": "> 30", "unit": "µM"}, {"measurement": "IC50", "setting": "SW948", "value": "> 30", "unit": "µM"}, {"measurement": "IC50", "setting": "NCI-H522", "value": "> 30", "unit": "µM"}, {"measurement": "IC50", "setting": "A549", "value": 0.1, "unit": "µM"}, {"measurement": "IC50", "setting": "HT29", "value": 0.1, "unit": "µM"}, {"measurement": "IC50", "setting": "22RV1", "value": "> 30", "unit": "µM"}, {"measurement": "IC50", "setting": "Capan1", "value": "> 30", "unit": "µM"}, {"measurement": "EC50", "setting": "A549 cells", "value": 0.07, "unit": "µM"}]}]}
